Eleven compounds from ChEMBL document CHEMBL1201862, “PubChem BioAssay data set” (2004) can be followed below.

Test systems include 786-0; ACHN; COLO 205; HCT-116; HCT-15; HOP-62; K562; Malme-3M; NCI-H226; NCI-H23; NCI-H522; NCI/ADR-RES; OVCAR-5; RPMI-8226; SF-268; SK-MEL-5; U-251; UO-31; CAKI-1; OVCAR-3.
Test in all cases: inhibition of tumour cell growth, NCI panel, 48 h

“And” between values parts separate entries of the source, which are not always exact repeats. Equal values may be shown once. Where a name gives a salt, the structure may show the parent alone.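 Interpolation was linear, between the two tested concentrations surrounding the appropriate level; five concentrations were tested over 48 hours in 96-well plates. GI50 marks 50% less growth.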 The source made the active and inactive calls. Rule as the data show it: active = GI50 up to about 1.1 µM and inactive = higher.

As for `Cc1cn(CC2=NCC(C)N2)c(=O)[nH]c1=O` (stereo unspecified), the GI50 is > 100 µM (inactive) with 786-0; > 100 µM (inactive) in the assay on ACHN; > 100 µM (inactive) in the assay with COLO 205; > 100 µM (inactive) with HCT-116; more than 100 µM with HCT-15; > 100 µM (inactive) in the assay with HOP-62. Besides, the GI50 in the assay with K562, in the assay on Malme-3M, in the assay with NCI-H226, in the assay with NCI-H23, with NCI-H522 and in the assay with NCI/ADR-RES was > 100 µM (inactive) each time. Also, the GI50 in the assay with OVCAR-5, in the assay on RPMI-8226, with SF-268, in the assay with SK-MEL-5, in the assay on U-251 and in the assay on UO-31 was > 100 µM (inactive) throughout.
Take `CN(C)CCCN1c2ccccc2Sc2ccc(C(F)(F)F)cc21` [TRIFLUPROMAZINE HYDROCHLORIDE]: the GI50 was 14.7 µM (inactive) and 14.1 µM (inactive) with 786-0; 14.9 µM (inactive) and 15.4 µM (inactive) in the assay on ACHN; 11.8 µM (inactive) in the assay with CAKI-1; 16.3 µM (inactive) and 16.7 µM (inactive) in the assay with COLO 205; 14.2 µM (inactive) and 14.4 µM (inactive) with HCT-116; 17.1 µM and 16.1 µM in the assay on HCT-15. Also, the GI50 in the assay with K562 is > 10 µM (inactive) and 13.8 µM (inactive); in the assay with Malme-3M, 16.4 µM (inactive) and 14.9 µM (inactive); with NCI-H23, 18.3 µM (inactive) and 16.5 µM (inactive); in the assay on NCI-H522 it was 17.9 µM (inactive) and 18.1 µM (inactive); with NCI/ADR-RES, 17.2 µM (inactive); in the assay with OVCAR-5, 17.1 µM (inactive). For the same compound, the GI50 with RPMI-8226 was 21.2 µM (inactive) and 14.9 µM (inactive); in the assay with SF-268 it was 14 µM (inactive) and 15 µM (inactive); with SK-MEL-5, 17.4 µM (inactive); in the assay with U-251, 14.2 µM (inactive) and 15.7 µM (inactive); in the assay on UO-31 it was 15.5 µM (inactive) and 14.3 µM (inactive).
As for `O=C1C=CC(=O)c2c(NCC3CC3)ccc(NCC3CC3)c21`, the GI50 in the assay on 786-0 is 56.4 µM (inactive); with ACHN it was 39.9 µM (inactive); in the assay on COLO 205, 19.7 µM (inactive); with HCT-116, 37.8 µM (inactive); with HCT-15, 13.3 µM; in the assay with HOP-62 it was > 100 µM (inactive). Moreover, the GI50 in the assay on K562 is 22.5 µM (inactive); with Malme-3M, 19.8 µM (inactive); in the assay with NCI-H23, 26.4 µM (inactive); in the assay on NCI-H522, 1.05 µM (active); in the assay with NCI/ADR-RES, 64.1 µM (inactive); with OVCAR-3, 26.7 µM (inactive). Also, the GI50 with OVCAR-5 was 59 µM (inactive); with RPMI-8226, 17.1 µM (inactive); in the assay on SK-MEL-5, 22.6 µM (inactive); in the assay on U-251, 55.7 µM (inactive); with UO-31, 75.2 µM (inactive).
For the compound `O=C1NC(Nc2ccccc2)=NC(C(F)(F)F)(C(F)(F)F)N1`, the GI50 was 39.1 µM (inactive) in the assay with 786-0; 35.1 µM (inactive) in the assay on ACHN; 33.4 µM (inactive) with COLO 205; 34.6 µM (inactive) in the assay with HCT-116; 51.1 µM in the assay on HCT-15; 53.3 µM (inactive) with HOP-62. For the same compound, the GI50 with K562 is 49.3 µM (inactive); in the assay with Malme-3M, 30.1 µM (inactive); in the assay on NCI-H226, 41.1 µM (inactive); in the assay on NCI-H23, 23.4 µM (inactive); in the assay on NCI/ADR-RES, 71.1 µM (inactive); in the assay with OVCAR-3, 37.9 µM (inactive). For the same compound, the GI50 with OVCAR-5 is 42.8 µM (inactive); in the assay with RPMI-8226, 34.1 µM (inactive); in the assay on SF-268, 39.8 µM (inactive); in the assay with SK-MEL-5, 25.1 µM (inactive); in the assay on U-251, 27.9 µM (inactive); in the assay on UO-31, 30.8 µM (inactive).
Regarding `O=[N+]([O-])c1ccc2sc(/C=N/c3cnccn3)cc2c1`, the GI50 with 786-0 is 33.5 µM (inactive); with ACHN, 30.9 µM (inactive); in the assay with CAKI-1, 57.3 µM (inactive); with COLO 205, 39.8 µM (inactive); in the assay on HCT-116, 37 µM (inactive); in the assay on HCT-15, 34.4 µM. In addition, the GI50 in the assay on HOP-62 is 29.1 µM (inactive); in the assay on K562 it was 21.4 µM (inactive); with Malme-3M it was 37 µM (inactive); in the assay with NCI-H23, 63 µM (inactive); in the assay on NCI-H522, 32.5 µM (inactive); in the assay on NCI/ADR-RES it was 70.3 µM (inactive). Besides, the GI50 with OVCAR-3 was 23.7 µM (inactive); with OVCAR-5, 36.4 µM (inactive); in the assay with RPMI-8226 it was 16 µM (inactive); in the assay on SF-268, 27.2 µM (inactive); in the assay on SK-MEL-5, 45.8 µM (inactive); in the assay with U-251 it was 20.9 µM (inactive). The GI50 with UO-31 was 24.1 µM (inactive).
For the compound `COC(=O)Cc1cccc2c1CCC2=O`, the GI50 was > 100 µM (inactive) with 786-0; > 100 µM (inactive) in the assay with ACHN; > 100 µM (inactive) in the assay on COLO 205; > 100 µM (inactive) in the assay with HCT-116; more than 100 µM in the assay on HCT-15; > 100 µM (inactive) in the assay on HOP-62. Besides, the GI50 with K562, in the assay on Malme-3M, with NCI-H226, with NCI-H23, in the assay with NCI-H522 and in the assay on NCI/ADR-RES was > 100 µM (inactive) each time. Moreover, the GI50 in the assay with OVCAR-3, with OVCAR-5, in the assay with RPMI-8226, in the assay with SF-268, in the assay on SK-MEL-5 and in the assay with U-251 was > 100 µM (inactive) throughout. The GI50 in the assay on UO-31 was > 100 µM (inactive).
On to `CCN(CC)c1nnc(CCCCCCCCc2nnc(N(CC)CC)o2)o1`, for which the GI50 with 786-0 is > 100 µM (inactive); in the assay on ACHN it was > 100 µM (inactive); in the assay on CAKI-1, > 100 µM (inactive); in the assay on COLO 205 it was > 100 µM (inactive); in the assay with HCT-116, > 100 µM (inactive); with HCT-15, more than 100 µM. The GI50 in the assay with HOP-62, in the assay with K562, in the assay with Malme-3M, in the assay with NCI-H226, in the assay on NCI-H23 and in the assay with NCI-H522 was > 100 µM (inactive) each time. Moreover, the GI50 in the assay on NCI/ADR-RES, in the assay with OVCAR-3, in the assay with OVCAR-5, in the assay with SF-268, with SK-MEL-5 and in the assay on U-251 was > 100 µM (inactive) in each case. Further, in the assay on UO-31, the GI50 is > 100 µM (inactive).
On to `CCCC(=O)NC1=C(NCC)C(=O)c2ccccc2C1=O`, for which the GI50 with 786-0 is > 100 µM (inactive); with ACHN it was > 100 µM (inactive); in the assay with COLO 205, 36.6 µM (inactive); in the assay on HCT-116 it was 43.7 µM (inactive); in the assay on HCT-15, 39.8 µM; in the assay on HOP-62, > 100 µM (inactive). Further, the GI50 is 50.8 µM (inactive) in the assay on K562; 38.5 µM (inactive) with Malme-3M; > 100 µM (inactive) in the assay on NCI-H226; > 100 µM (inactive) with NCI-H23; 25.9 µM (inactive) in the assay on NCI-H522; > 10 µM (inactive) with NCI/ADR-RES. In addition, the GI50 in the assay on OVCAR-3 is 34.2 µM (inactive); in the assay on OVCAR-5, > 100 µM (inactive); in the assay with RPMI-8226 it was > 100 µM (inactive); in the assay with SF-268, > 100 µM (inactive); in the assay on SK-MEL-5, 74.1 µM (inactive); in the assay on U-251, > 100 µM (inactive).
As to `COc1cc(OC)c2c(=O)c(OC)c(-c3ccc4c(c3)OCO4)oc2c1`, the GI50 was 36 µM (inactive) with 786-0; 33.6 µM (inactive) in the assay with ACHN; 21 µM (inactive) with CAKI-1; > 100 µM (inactive) in the assay with COLO 205; 44.4 µM (inactive) in the assay on HCT-116; more than 100 µM in the assay on HCT-15. The GI50 is 23.5 µM (inactive) in the assay with HOP-62; > 100 µM (inactive) in the assay on K562; > 100 µM (inactive) with Malme-3M; 46.3 µM (inactive) with NCI-H226; 23.2 µM (inactive) in the assay on NCI-H23; 38.3 µM (inactive) with NCI-H522. The GI50 is 46.9 µM (inactive) in the assay on NCI/ADR-RES; > 100 µM (inactive) in the assay with OVCAR-3; > 100 µM (inactive) in the assay on OVCAR-5; 20.7 µM (inactive) in the assay on SF-268; 47.3 µM (inactive) with SK-MEL-5; 16.6 µM (inactive) in the assay on U-251. Besides, the GI50 in the assay with UO-31 was > 100 µM (inactive).
Turning to `CC(C)N1CCCOC(c2ccc([N+](=O)[O-])cc2)O1` (stereo unspecified), the GI50 is > 100 µM (inactive) with 786-0; > 100 µM (inactive) in the assay on ACHN; > 100 µM (inactive) with CAKI-1; > 100 µM (inactive) with COLO 205; > 100 µM (inactive) with HCT-116; more than 100 µM in the assay with HCT-15. For the same compound, the GI50 with HOP-62, in the assay with K562, with Malme-3M, in the assay on NCI-H226, in the assay on NCI-H23 and with NCI-H522 was > 100 µM (inactive) in each case. The GI50 was > 100 µM (inactive) with NCI/ADR-RES; > 100 µM (inactive) in the assay on OVCAR-3; > 100 µM (inactive) with OVCAR-5; > 100 µM (inactive) in the assay on SF-268; 58.6 µM (inactive) with SK-MEL-5; > 100 µM (inactive) in the assay with U-251. Also, the GI50 in the assay with UO-31 was > 100 µM (inactive).
Take `Cc1ccc(C(=O)/C=C2\Nc3ccccc3S\C2=N\CS(=O)(=O)c2ccc(C)cc2)cc1`: the GI50 with 786-0 was > 10 µM (inactive); with ACHN, > 10 µM (inactive); with CAKI-1 it was > 10 µM (inactive); in the assay with COLO 205 it was > 10 µM (inactive); in the assay on HCT-116, > 10 µM (inactive); in the assay on HCT-15 it was more than 10 µM. The GI50 with HOP-62 is 7.8 µM (inactive); in the assay with K562, > 10 µM (inactive); in the assay with Malme-3M, > 10 µM (inactive); in the assay on NCI-H23, > 10 µM (inactive); in the assay on NCI-H522, 5.38 µM (inactive); with NCI/ADR-RES, > 10 µM (inactive). The GI50 is 4.33 µM (inactive) in the assay with OVCAR-3; > 10 µM (inactive) in the assay on OVCAR-5; > 10 µM (inactive) with RPMI-8226; > 10 µM (inactive) in the assay with SF-268; > 10 µM (inactive) in the assay on SK-MEL-5; > 10 µM (inactive) with U-251.
